Reference: ChEMBL document CHEMBL5038635, “Discovery of Salidroside-Derivated Glycoside Analogues as Novel Angiogenesis Agents to Treat Diabetic Hind Limb Ischemia” (J Med Chem, 2022)
Converted amounts (≈) assume the structure as drawn. The source made the active and inactive calls. No cut-off for these calls is given here.

How the values were obtained:
[1] = Protein binding in human plasma by balanced dialysis method; format: ADME, cell-free; conditions: read-out: PPB (converted)
[2] = Efflux ratio of Apparent permeability across basolateral to apical side over apical to basolateral side in human Caco-2 cells
[3] = test system: C2C12; experiment: Reversal of hyperglycemia-induced VEGF-A protein level reduction in mouse C2C12 cells measured at 30 uM by Western blot analysis; format: functional, cell-based
[4] = Water solubility of the compound by HPLC analysis
[5] = Dissociation constant, pKa of compound by UV-visible spectrometric method; format: physicochemical
[6] = Octanol/Water partition coefficient, log P of the compound by HPLC-UV analysis
[7] = Permeability coefficient across apical to basolateral side in human Caco-2 cells by HPLC-UV analysis
[8] = Permeability coefficient across basolateral to apical side in human Caco-2 cells by HPLC-UV analysis
[9] = test system: C2C12; experiment: Reversal of hyperglycemia-induced PDGF-BB protein level reduction in mouse C2C12 cells measured at 30 uM by Western blot analysis; format: functional, cell-based
[10] = test system: C2C12; experiment: Reversal of hyperglycemia-induced VEGF-A protein level reduction in mouse C2C12 cells measured at 30 uM by ELISA; format: functional, cell-based
[11] = test system: C2C12; experiment: Reversal of hyperglycemia-induced PDGF-BB protein level reduction in mouse C2C12 cells measured at 30 uM by ELISA; format: functional, cell-based
[12] = test system: C2C12; experiment: Induction of F-actin polymerization in mouse C2C12 cells at 30 uM pretreated with compound for 12 hr followed by hypoxic condition for 24 hrs by phalloidin staining based confocal microscopy; format: functional, cell-based; conditions: time 36.0 hrs
[13] = test system: C2C12; experiment: Induction of cell migration in mouse C2C12 cells at 30 uM under hyperglycemic condition incubated for 24 hrs by crystal violet dye based transwell chamber assay; format: functional
[14] = test system: MOVAS-1; experiment: Angiogenesis activity in mouse MOVAS-1 assessed as increase of cell migration using conditioned medium of mouse C2C12 cells with silenced HIF-1alpha treated at 30 uM under hyperglycemic condition for 12 hrs followed by hypoxia for 24 hrs by crystal violet dye based transwell assay; format: functional; conditions: time 36.0 hrs
[15] = test system: HUVEC; experiment: Angiogenesis activity in human HUVEC cells assessed as increase of cell migration using conditioned medium of mouse C2C12 cells with silenced HIF-1alpha treated at 30 uM under hyperglycemic condition for 12 hrs followed by hypoxia for 24 hrs by crystal violet dye based transwell assay; format: functional; conditions: time 36.0 hrs
[16] = test system: MOVAS-1; experiment: Induction proliferation of mouse MOVAS-1 cells assessed as increase in number of EdU-positive cells using conditioned medium of mouse C2C12 cells treated at 30 uM under hyperglycemic condition for 12 hrs followed by hypoxia for 24 hrs by EdU-incorporation assay; format: functional; conditions: time 36.0 hrs
[17] = test system: HUVEC; experiment: Induction proliferation of human HUVEC cells assessed as increase in number of EdU-positive cells using conditioned medium of mouse C2C12 cells treated at 30 uM under hyperglycemic condition for 12 hrs followed by hypoxia for 24 hrs by EdU-incorporation assay; format: functional; conditions: time 36.0 hrs
[18] = test system: HUVEC; experiment: Angiogenic activity in human HUVEC cells assessed as suppression of F-actin polymerization at 30 uM using conditioned medium of mouse C2C12 cells treated at 30 uM under hyperglycemic condition for 12 hrs followed by hypoxia for 12 hrs by phalloidin staining based confocal microscopy; format: functional, cell-based; conditions: time 24.0 hrs
[19] = test system: MOVAS-1; experiment: Angiogenic activity in mouse MOVAS-1 cells assessed as suppression of F-actin polymerization at 30 uM using conditioned medium of mouse C2C12 cells treated at 30 uM under hyperglycemic condition for 12 hrs followed by hypoxia for 12 hrs by phalloidin staining based confocal microscopy; format: functional, cell-based; conditions: time 24.0 hrs
[20] = test system: HUVEC; experiment: Angiogenesis activity in human HUVEC cells assessed as suppression of cell migration using conditioned medium of mouse C2C12 cells treated at 30 uM under hyperglycemic condition for 12 hrs followed by hypoxia for 24 hrs by crystal violet dye based transwell assay; format: functional; conditions: time 36.0 hrs
[21] = test system: MOVAS-1; experiment: Angiogenesis activity in mouse MOVAS-1 cells assessed as suppression of cell migration using conditioned medium of mouse C2C12 cells treated at 30 uM under hyperglycemic condition for 12 hrs followed by hypoxia for 24 hrs by crystal violet dye based transwell assay; format: functional; conditions: time 36.0 hrs
[22] = test system: HUVEC; experiment: Induction proliferation of human HUVEC cells assessed as increase in number of EdU-positive cells using conditioned medium of mouse C2C12 cells with silenced HIF-1alpha treated at 30 uM under hyperglycemic condition for 12 hrs followed by hypoxia for 24 hrs by EdU-incorporation assay; format: functional, cell-based; conditions: time 36.0 hrs
[23] = test system: MOVAS-1; experiment: Induction proliferation of mouse MOVAS-1 assessed as increase in number of EdU-positive cells using conditioned medium of mouse C2C12 cells with silenced HIF-1alpha treated at 30 uM under hyperglycemic condition for 12 hrs followed by hypoxia for 24 hrs by EdU-incorporation assay; format: functional, cell-based; conditions: time 36.0 hrs
[24] = Stability in rat plasma assessed as compound remaining at 6.25 to 25 mg/L after 12 hrs by HPLC analysis; format: ADME, cell-free; conditions: at 6.25 to 25 µg/mL, dose 6.25-25 mg/L, read-out: Stability
[25] = Microsomal stability in rat liver microsomes assessed as compound remaining after 30 min by HPLC analysis; format: ADME, Microsome; conditions: read-out: Stability
[26] = Metabolic stability in rat leg muscle homogenates assessed as compound remaining after 30 min by HPLC analysis; format: ADME, tissue-based, muscle of leg; conditions: read-out: Stability
[27] = test system: Mus musculus; experiment: Antidiabetic activity in diabetic HLI C57BL/6 mouse model assessed as effect on blood glucose level at 15 mg/kg administered intramuscular; format: functional, organism-based
[28] = test system: Mus musculus; experiment: Antidiabetic activity in diabetic HLI C57BL/6 mouse model assessed as increase in blood perfusion recovery at 100 mg/kg administered intramuscularly; format: functional, organism-based
[29] = test system: Mus musculus; experiment: Antidiabetic activity in diabetic HLI C57BL/6 mouse model assessed as morphological changes at 100 mg/kg administered intramuscularly; format: functional, organism-based
[30] = test system: Mus musculus; experiment: Angiogenesis activity in diabetic HLI C57BL/6 mouse model assessed as PDGF-BB protein expression at 100 mg/kg, im administered for 21 days followed by surgery by Western blot analysis; format: functional, organism-based; conditions: time 21.0 day
[31] = test system: Mus musculus; experiment: Angiogenesis activity in diabetic HLI C57BL/6 mouse model assessed as VEGF-A protein expression at 100 mg/kg, im administered for 21 days followed by surgery by Western blot analysis; format: functional, organism-based; conditions: time 21.0 day
[32] = test system: Mus musculus; experiment: Angiogenesis activity in diabetic HLI C57BL/6 mouse model assessed as HIF-1alpha protein expression at 100 mg/kg, im administered for 21 days followed by surgery by Western blot analysis; format: functional, organism-based; conditions: time 21.0 day

Structure (SMILES): OC[C@H]1O[C@@H](OCCc2ccc(O)cc2)[C@H](O)[C@@H](O)[C@@H]1O [SALIDROSIDE]
- fraction unbound [1]: 0.873
- efflux ratio [2]: 1.09
- Activity [3]: Active
- solubility [4]: 472 mg/mL (≈ 1570 mM)
- pKa [5]: 10.1
- logP [6]: -2.42
- Papp A→B [7]: 2.71 ×10⁻⁶ cm/s
- Papp B→A [8]: 2.95 ×10⁻⁶ cm/s
- Activity [9]: Active
- Activity [10]: Active
- Activity [11]: Active
- Activity [12]: Active
- Activity [13]: Active
- Activity [14]: Active
- Activity [15]: Active
- Activity [16]: Active
- Activity [17]: Active
- Activity [18]: inactive
- Activity [19]: inactive
- Activity [20]: inactive
- Activity [21]: inactive
- Activity [22]: Active
- Activity [23]: Active
- remaining at 12 h [24]: 99.4%
- remaining at 0.5 h [25]: 43.3%
- remaining at 0.5 h [26]: 35.8%
- Activity [27]: Active
- Activity [28]: Active
- Activity [29]: Active
- Activity [30]: Active
- Activity [31]: Active
- Activity [32]: Active
